Results reported in patent US20250074946A1, “USE OF SE-DR AFFINITY PEPTIDE IN PREPARING DRUG FOR TREATING RHEUMATIC DISEASE” (HEBEI FITNESS BIOTECHNOLOGY CO., LTD., priority 2021, published 2025).
Where no end group is shown, it is not given here.

Experiments:
[1] = system: CIA mice infected with chronic hepatitis B; experiment: CIA mice infected with chronic hepatitis B (Example 8); assay type: in vivo, mouse
Summary of the method: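 DBA/1 mice given rAAV8-1.3HBV (1×10^12 vg/mL) i.v.; 2 days later immunised intradermally with bovine CII/CFA (100 μg collagen), boosted i.p. at day 21 with CII/IFA. Randomised at paw score 1; drugs i.v. every other day for 27 days. Paw inflammation scores, serum viral and liver-function markers measured.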

[2] = system: immune system of healthy monkeys; experiment: Immune indicators of cynomolgus monkeys after one month of administration (Example 5); assay type: in vivo, cynomolgus monkey; details: once a day for 4 weeks, end of administration
Description: Cynomolgus monkeys were used to investigate the effects of the SE-DR affinity peptide on the immune indicators of cynomolgus monkeys after continuous administration for one month. […] At the end of administration, the immune indicators, including the serum anti-FNS007 antibodies, the immunoglobulins of different serotypes, the serum complement, the peripheral blood T lymphocyte and the serum cytokines, were observed.

[3] = system: immune system of healthy rats; experiment: Immune indicators of SD rats after one month of administration (Example 4); assay type: in vivo, rat; details: once a day for 4 weeks, end of administration
Method: SD rats were used to investigate the effects of the SE-DR affinity peptides on the immune indicators of the rats after continuous administration for one month. […] At the end of administration, analysis was conducted on the serum anti-FNS007 antibodies, different types of serum immunoglobulins, the serum complement, the peripheral blood T lymphocyte and the serum cytokines.

Sequence: FKGEQAGAGE [APL2]
- ALT level ([1]; at sacrifice, day 28): 45.88 ± 19.74 U/L
- Hepatitis B activation rate (Ratio of ALT > 100 U/L) ([1]; at sacrifice, day 28): 0%
- Observation on the daily condition of mice ([1]; during administration): No abnormality
- Inflammation score and area under the time curve (AUC) ([1]; peptides 50 μmol, Abatacept 100 μg, tail i.v. once every other day for 27 days): 89.86 ± 46.14
- CD3% [2]: 63.37 ± 16.35%
- CD4% [2]: 27.33 ± 6.66%
- CD8% [2]: 21.74 ± 4.37%
- IFN-γ [2]: 5.09 ± 0.52 pg/mL
- IL-2 [2]: 4.62 ± 0.86 pg/mL
- IL-4 [2]: 2.12 ± 0.42 pg/mL
- TNF-α [2]: 2.42 ± 0.51 pg/mL
- CD3% [3]: 37.4 ± 10.52%
- CD4% [3]: 19.77 ± 6.05%
- CD8% [3]: 17.29 ± 7.09%
- IFN-γ [3]: 2.47 ± 0.36 pg/mL
- IL-2 [3]: 3.69 ± 3.03 pg/mL
- IL-4 [3]: 1.96 ± 1.26 pg/mL
- TNF-α [3]: 5.13 ± 1.83 pg/mL
